From patent EP4722207A1, “OXOISOINDOLINYL-SUBSTITUTED TETRAHYDROPYRIMIDINEDIONE DERIVATIVE AND USE THEREOF” (Gluetacs Therapeutics (Shanghai) Co., Ltd., priority 2023, dated 2024)

Key:
Assay type in all cases: cell-based
Conditions in all cases: compounds at 50 nM and 500 nM, 24 hours
CK1α = target: T1, CK1α (Homo sapiens, UniProt P48729+Q96SW2); experiment: Western-blot assay, substrate protein degradation in hPBMCs: CK1α
T1 construct: effects of the compounds of the present disclosure on the expression of target proteins in cells; endogenous in cells; host or cells: human PBMCs (hPBMCs)
Procedure: (§1) Conventional Western blot assay was performed to evaluate the effects of the compounds of the present disclosure on the expression of target proteins in cells. • (1) Cell Seeding and Protein Harvesting: Human peripheral blood mononuclear cells (hPBMCs) at a density of 1x10^6 cells/mL were thawed according to the PBMC Recovery Protocol (Milecell Biotechnologies Inc, Shanghai). […] After 24 hours of compounds treatment, cells were harvested and lysed in RIPA protein lysate containing protease inhibitors on ice for 30 min, followed by centrifugation. The supernatant was aspirated as the extracted total cell protein. The protein concentration of the supernatant was determined using the conventional BCA (Bicinchoninic Acid) assay. • (2) To the collected supernatant, 5X SDS sample loading buffer was added, followed by denaturation at 95°C for 5 minutes. The denatured samples were then separated by SDS-PAGE electrophoresis on a polyacrylamide gel. Proteins were transferred to a nitrocellulose membrane (0.45 µm NC membrane), blocked with blocking buffer at room temperature for 1 hour, and subjected to antibody incubation and development procedures according to the antibody manufacturer's instructions (Cell Signaling Technology).
(§2) Half-Maximal Degradation Concentration value (the drug concentration required for degrading proteins by 50%, abbreviated as DC50) reads method: comparing the grayscale values of Western blot bands from drug-treated samples with those from blank DMSO-treated controls, and identifying the drug concentration range at which the grayscale value is half that of the DMSO-treated control bands.
(§3) DC50 values can be calculated using ImageJ software to measure grayscale values of Western blot bands from drug-treated samples. The concentration-response curve is fitted to estimate the drug concentration corresponding to half the grayscale value.
(§4) Target protein remaining (%) refers to the percentage of target protein remaining in cells after treatment with protein degrader compounds.
(§5) Calculation method for target protein remaining (%): Use ImageJ software to measure grayscale values of Western blot bands from drug (protein degrader)-treated samples. The grayscale value of drug-treated bands is divided by that of internal control protein bands, and the resulting quotient is normalized to obtain the relative percentage of remaining target protein after protein degrader treatment. Target protein degradation rate(%) = 1−target protein remaining(%). [formula]

WEE1 = target: T2, WEE1 (Homo sapiens, UniProt P30291+Q96SW2); experiment: Western-blot assay, substrate protein degradation in hPBMCs: WEE1
T2 construct: effects of the compounds of the present disclosure on the expression of target proteins in cells; endogenous in cells; host or cells: human PBMCs (hPBMCs)
Procedure: as §1, §2, §3, §4, §5

IKZF2 = target: T3, IKZF2 (Homo sapiens, UniProt Q96SW2+Q9UKS7); experiment: Western-blot assay, substrate protein degradation in hPBMCs: IKZF2
T3 construct: effects of the compounds of the present disclosure on the expression of target proteins in cells; endogenous in cells; host or cells: human PBMCs (hPBMCs)
Procedure: as §1, §2, §3, §4, §5

IKZF1 = target: T4, IKZF1 (Homo sapiens, UniProt Q13422+Q96SW2); experiment: Western-blot assay, substrate protein degradation in hPBMCs: IKZF1
T4 construct: effects of the compounds of the present disclosure on the expression of target proteins in cells; endogenous in cells; host or cells: human PBMCs (hPBMCs)
Procedure: as §1, §2, §3, §4, §5

IKZF3 = target: T5, IKZF3 (Homo sapiens, UniProt Q96SW2+Q9UKT9); experiment: Western-blot assay, substrate protein degradation in hPBMCs: IKZF3
T5 construct: effects of the compounds of the present disclosure on the expression of target proteins in cells; endogenous in cells; host or cells: human PBMCs (hPBMCs)
Procedure: as §1, §2, §3, §4, §5

GSPT1 = target: T6, GSPT1 (Homo sapiens, UniProt P15170+Q96SW2); experiment: Western-blot assay, substrate protein degradation in hPBMCs: GSPT1
T6 construct: effects of the compounds of the present disclosure on the expression of target proteins in cells; endogenous in cells; host or cells: human PBMCs (hPBMCs)
Procedure: as §1, §2, §3, §4, §5

T1 sequence (P48729 whole entry): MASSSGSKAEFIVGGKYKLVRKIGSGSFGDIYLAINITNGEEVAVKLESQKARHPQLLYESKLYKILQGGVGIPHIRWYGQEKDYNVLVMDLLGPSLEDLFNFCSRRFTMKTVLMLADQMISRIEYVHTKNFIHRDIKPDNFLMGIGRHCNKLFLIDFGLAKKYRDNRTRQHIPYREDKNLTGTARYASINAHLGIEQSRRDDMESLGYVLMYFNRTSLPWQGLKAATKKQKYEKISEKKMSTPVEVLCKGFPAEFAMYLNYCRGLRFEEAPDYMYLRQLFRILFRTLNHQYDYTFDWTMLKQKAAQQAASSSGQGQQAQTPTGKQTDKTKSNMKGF
T1 sequence (Q96SW2 whole entry): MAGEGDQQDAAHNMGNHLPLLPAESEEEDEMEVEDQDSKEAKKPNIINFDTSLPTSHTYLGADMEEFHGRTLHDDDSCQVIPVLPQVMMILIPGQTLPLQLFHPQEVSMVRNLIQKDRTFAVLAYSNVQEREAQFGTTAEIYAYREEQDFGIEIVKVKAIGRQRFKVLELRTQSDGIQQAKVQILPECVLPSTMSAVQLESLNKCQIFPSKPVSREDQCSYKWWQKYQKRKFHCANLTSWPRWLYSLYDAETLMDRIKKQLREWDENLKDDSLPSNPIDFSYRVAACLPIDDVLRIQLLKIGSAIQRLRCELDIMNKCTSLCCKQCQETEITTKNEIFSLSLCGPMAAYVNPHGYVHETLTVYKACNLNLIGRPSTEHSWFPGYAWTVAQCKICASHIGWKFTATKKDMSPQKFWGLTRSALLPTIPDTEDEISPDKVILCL
T1 sequence (Q16531 whole entry partner): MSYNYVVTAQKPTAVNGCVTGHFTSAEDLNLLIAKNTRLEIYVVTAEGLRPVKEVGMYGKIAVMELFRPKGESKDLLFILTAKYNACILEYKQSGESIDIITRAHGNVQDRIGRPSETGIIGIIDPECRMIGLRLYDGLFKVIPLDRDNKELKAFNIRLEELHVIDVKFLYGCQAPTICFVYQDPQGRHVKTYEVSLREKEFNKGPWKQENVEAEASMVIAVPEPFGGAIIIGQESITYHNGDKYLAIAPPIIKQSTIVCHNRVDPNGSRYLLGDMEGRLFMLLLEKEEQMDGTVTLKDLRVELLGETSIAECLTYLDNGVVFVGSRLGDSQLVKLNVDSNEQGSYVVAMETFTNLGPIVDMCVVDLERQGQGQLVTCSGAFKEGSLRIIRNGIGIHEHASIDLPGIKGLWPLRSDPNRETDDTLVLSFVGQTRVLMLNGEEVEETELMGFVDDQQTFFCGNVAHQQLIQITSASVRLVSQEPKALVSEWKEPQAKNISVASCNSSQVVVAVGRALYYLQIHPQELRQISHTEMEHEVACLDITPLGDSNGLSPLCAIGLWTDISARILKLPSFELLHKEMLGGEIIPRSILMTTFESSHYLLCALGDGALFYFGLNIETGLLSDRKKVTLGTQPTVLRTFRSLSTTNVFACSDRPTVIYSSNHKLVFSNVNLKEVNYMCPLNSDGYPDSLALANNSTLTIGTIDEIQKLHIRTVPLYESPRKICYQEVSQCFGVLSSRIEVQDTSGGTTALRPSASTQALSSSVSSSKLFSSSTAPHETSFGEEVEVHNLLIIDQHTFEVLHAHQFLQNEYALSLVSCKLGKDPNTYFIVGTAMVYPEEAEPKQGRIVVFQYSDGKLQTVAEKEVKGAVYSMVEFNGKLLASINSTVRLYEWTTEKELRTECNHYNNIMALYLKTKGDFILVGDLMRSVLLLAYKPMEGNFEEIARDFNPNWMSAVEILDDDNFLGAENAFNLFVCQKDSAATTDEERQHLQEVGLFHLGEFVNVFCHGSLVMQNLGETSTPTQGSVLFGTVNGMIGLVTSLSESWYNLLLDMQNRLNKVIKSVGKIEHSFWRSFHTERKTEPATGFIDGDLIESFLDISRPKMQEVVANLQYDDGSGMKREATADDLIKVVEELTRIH
T6 sequence (P15170 whole entry): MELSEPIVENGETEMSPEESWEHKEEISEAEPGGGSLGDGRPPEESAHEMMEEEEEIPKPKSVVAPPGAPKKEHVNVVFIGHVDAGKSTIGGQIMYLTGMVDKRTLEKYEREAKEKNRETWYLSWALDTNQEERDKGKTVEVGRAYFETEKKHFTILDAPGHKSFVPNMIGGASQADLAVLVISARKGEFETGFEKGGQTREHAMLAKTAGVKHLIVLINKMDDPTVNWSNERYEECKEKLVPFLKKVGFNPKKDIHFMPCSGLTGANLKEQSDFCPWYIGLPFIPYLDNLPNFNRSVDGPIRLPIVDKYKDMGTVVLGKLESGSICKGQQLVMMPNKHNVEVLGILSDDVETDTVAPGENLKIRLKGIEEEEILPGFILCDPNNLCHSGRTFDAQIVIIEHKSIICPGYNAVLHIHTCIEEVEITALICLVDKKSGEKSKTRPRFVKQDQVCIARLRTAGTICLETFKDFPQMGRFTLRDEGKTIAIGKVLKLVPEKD
T6 sequence (Q96SW2 whole entry): as the sequence (Q96SW2 whole entry) above
T6 sequence (Q16531 whole entry partner): as the sequence (Q16531 whole entry partner) above
T4 sequence (Q13422 whole entry): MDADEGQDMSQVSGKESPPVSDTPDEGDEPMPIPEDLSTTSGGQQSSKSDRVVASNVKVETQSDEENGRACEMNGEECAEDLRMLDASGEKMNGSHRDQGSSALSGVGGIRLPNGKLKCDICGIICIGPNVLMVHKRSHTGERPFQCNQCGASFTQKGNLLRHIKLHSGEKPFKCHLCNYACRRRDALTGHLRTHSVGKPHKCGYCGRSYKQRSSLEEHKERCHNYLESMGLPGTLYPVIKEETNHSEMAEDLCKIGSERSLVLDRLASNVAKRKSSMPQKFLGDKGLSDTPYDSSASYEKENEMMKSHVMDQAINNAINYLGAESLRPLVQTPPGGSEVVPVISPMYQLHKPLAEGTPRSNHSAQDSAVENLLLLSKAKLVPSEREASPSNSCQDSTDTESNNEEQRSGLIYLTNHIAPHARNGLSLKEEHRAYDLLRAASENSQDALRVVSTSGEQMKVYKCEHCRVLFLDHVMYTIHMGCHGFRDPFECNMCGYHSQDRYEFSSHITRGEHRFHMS
T4 sequence (Q96SW2 whole entry): as the sequence (Q96SW2 whole entry) above
T4 sequence (Q16531 whole entry partner): as the sequence (Q16531 whole entry partner) above
T3 sequence (Q9UKS7 whole entry): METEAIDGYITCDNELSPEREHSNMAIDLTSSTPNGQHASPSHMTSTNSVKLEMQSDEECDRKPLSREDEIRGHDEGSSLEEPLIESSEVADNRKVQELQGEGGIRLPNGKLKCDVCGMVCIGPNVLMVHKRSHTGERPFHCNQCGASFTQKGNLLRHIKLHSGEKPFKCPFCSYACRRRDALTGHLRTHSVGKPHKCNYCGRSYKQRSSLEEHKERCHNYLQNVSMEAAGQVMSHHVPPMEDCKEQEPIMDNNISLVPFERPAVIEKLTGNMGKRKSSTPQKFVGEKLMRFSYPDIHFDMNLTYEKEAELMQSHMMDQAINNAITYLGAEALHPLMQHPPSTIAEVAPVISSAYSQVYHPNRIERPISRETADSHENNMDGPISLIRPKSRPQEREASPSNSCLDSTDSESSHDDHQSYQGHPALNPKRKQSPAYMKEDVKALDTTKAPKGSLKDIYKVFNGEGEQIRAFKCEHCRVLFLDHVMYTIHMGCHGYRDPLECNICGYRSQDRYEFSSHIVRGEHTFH
T3 sequence (Q96SW2 whole entry): as the sequence (Q96SW2 whole entry) above
T3 sequence (Q16531 whole entry partner): as the sequence (Q16531 whole entry partner) above
T2 sequence (P30291 whole entry): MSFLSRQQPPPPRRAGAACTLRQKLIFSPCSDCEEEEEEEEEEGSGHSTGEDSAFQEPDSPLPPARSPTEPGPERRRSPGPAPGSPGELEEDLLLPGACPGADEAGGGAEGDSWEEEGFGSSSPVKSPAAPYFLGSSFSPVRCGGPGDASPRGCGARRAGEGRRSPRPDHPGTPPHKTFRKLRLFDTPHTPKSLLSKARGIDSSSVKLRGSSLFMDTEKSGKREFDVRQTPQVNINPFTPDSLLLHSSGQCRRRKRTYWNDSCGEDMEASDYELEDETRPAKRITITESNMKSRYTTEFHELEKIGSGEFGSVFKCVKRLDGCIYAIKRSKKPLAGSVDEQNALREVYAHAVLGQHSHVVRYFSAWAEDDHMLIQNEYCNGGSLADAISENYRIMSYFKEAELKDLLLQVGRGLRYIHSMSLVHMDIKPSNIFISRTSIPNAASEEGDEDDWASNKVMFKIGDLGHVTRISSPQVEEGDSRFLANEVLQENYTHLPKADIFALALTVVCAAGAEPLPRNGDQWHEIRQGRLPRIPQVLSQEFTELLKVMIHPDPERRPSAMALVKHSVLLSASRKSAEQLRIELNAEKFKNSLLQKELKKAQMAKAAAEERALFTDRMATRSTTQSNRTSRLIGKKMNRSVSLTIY
T2 sequence (Q96SW2 whole entry): as the sequence (Q96SW2 whole entry) above
T2 sequence (Q16531 whole entry partner): as the sequence (Q16531 whole entry partner) above

SMILES	CK1α substrate protein remaining % (CK1α)	WEE1 substrate protein remaining % (WEE1)	IKZF2 substrate protein remaining % (IKZF2)	IKZF1 substrate protein remaining % (IKZF1)	IKZF3 substrate protein remaining % (IKZF3)	GSPT1 substrate protein remaining % (GSPT1)
O=C1CCN(N2C(=O)c3ccc(CN4CCN(c5cccc(Cl)c5Cl)CC4)cc3C2=O)C(=O)N1 [GT-04854, 5-((4-(2,3-dichlorophenyl)piperazin-1-yl)methyl)-2-(2,4-dioxotetrahydropyrimidin-1(2H)-yl)isoindoline-1,3-dione]	B ("B" is defined as 80%< substrate protein remaining %≤ 100%)	A ("A" is defined as 0% ≤ substrate protein remaining % ≤ 80%)	A ("A" is defined as 0% ≤ substrate protein remaining % ≤ 80%)	A ("A" is defined as 0% ≤ substrate protein remaining % ≤ 80%)	B ("B" is defined as 80%< substrate protein remaining %≤ 100%)	A ("A" is defined as 0% ≤ substrate protein remaining % ≤ 80%)
O=C1CCN(N2Cc3cc(CN4CCC(c5noc6cc(F)ccc56)CC4)ccc3C2=O)C(=O)N1 [GT-04864, 1-(5-((4-(6-fluorobenzo[d]isoxazol-3-yl)piperidin-1-yl)methyl)-1-oxoisoindolin-2-yl)dihydropyrimidine-2,4(1H,3H)-dione]	B ("B" is defined as 80%< substrate protein remaining %≤ 100%)	B ("B" is defined as 80%< substrate protein remaining %≤ 100%)	B ("B" is defined as 80%< substrate protein remaining %≤ 100%)	A ("A" is defined as 0% ≤ substrate protein remaining % ≤ 80%)	B ("B" is defined as 80%< substrate protein remaining %≤ 100%)	A ("A" is defined as 0% ≤ substrate protein remaining % ≤ 80%)
O=C1CCN(N2Cc3cc(CN4CCN(c5nsc6ccccc56)CC4)ccc3C2=O)C(=O)N1 [GT-04865, 1-(5-((4-(benzo[d]isothiazol-3-yl)piperazin-1-yl)methyl)-1-oxoisoindolin-2-yl)dihydropyrimidine-2,4(1H,3H)-dione]	B ("B" is defined as 80%< substrate protein remaining %≤ 100%)	B ("B" is defined as 80%< substrate protein remaining %≤ 100%)	B ("B" is defined as 80%< substrate protein remaining %≤ 100%)	A ("A" is defined as 0% ≤ substrate protein remaining % ≤ 80%)	B ("B" is defined as 80%< substrate protein remaining %≤ 100%)	A ("A" is defined as 0% ≤ substrate protein remaining % ≤ 80%)
O=C1CCN(N2Cc3cc(CN4CCN(c5ncccc5C(F)(F)F)CC4)ccc3C2=O)C(=O)N1 [GT-05174, 1-(1-oxo-5-((4-(3-(trifluoromethyl)pyridin-2-yl)piperazin-1-yl)methyl)isoindolin-2-yl)dihydropyrimidine-2,4(1H,3H)-dione]	B ("B" is defined as 80%< substrate protein remaining %≤ 100%)			B ("B" is defined as 80%< substrate protein remaining %≤ 100%)	B ("B" is defined as 80%< substrate protein remaining %≤ 100%)	
O=C1CCN(N2Cc3cc(CN4CCN(c5cccc(C(F)(F)F)n5)CC4)ccc3C2=O)C(=O)N1 [GT-05175, 1-(1-oxo-5-((4-(6-(trifluoromethyl)pyridin-2-yl)piperazin-1-yl)methyl)isoindolin-2-yl)dihydropyrimidine-2,4(1H,3H)-dione]		A ("A" is defined as 0% ≤ substrate protein remaining % ≤ 80%)	B ("B" is defined as 80%< substrate protein remaining %≤ 100%)	B ("B" is defined as 80%< substrate protein remaining %≤ 100%)		A ("A" is defined as 0% ≤ substrate protein remaining % ≤ 80%)
O=C1CCN(N2Cc3cc(CN4CCN(c5ccc(C(F)(F)F)cn5)CC4)ccc3C2=O)C(=O)N1 [GT-05176, 1-(1-oxo-5-((4-(5-(trifluoromethyl)pyridin-2-yl)piperazin-1-yl)methyl)isoindolin-2-yl)dihydropyrimidine-2,4(1H,3H)-dione]	B ("B" is defined as 80%< substrate protein remaining %≤ 100%)		B ("B" is defined as 80%< substrate protein remaining %≤ 100%)	B ("B" is defined as 80%< substrate protein remaining %≤ 100%)		
O=C1CCN(N2C(=O)c3ccc(CN4CCN(c5ccccn5)CC4)cc3C2=O)C(=O)N1 [GT-05351, 2-(2,4-dioxotetrahydropyrimidin-1(2H)-yl)-5-((4-(pyridin-2-yl)piperazin-1-yl)methyl)isoindoline-1,3-dione]	B ("B" is defined as 80%< substrate protein remaining %≤ 100%)		A ("A" is defined as 0% ≤ substrate protein remaining % ≤ 80%)	B ("B" is defined as 80%< substrate protein remaining %≤ 100%)	B ("B" is defined as 80%< substrate protein remaining %≤ 100%)	
O=C1CCN(N2C(=O)c3ccc(CN4CCN(c5cccc(Cl)n5)CC4)cc3C2=O)C(=O)N1 [GT-05353, 5-((4-(6-chloropyridin-2-yl)piperazin-1-yl)methyl)-2-(2,4-dioxotetrahydropyrimidin-1(2H)-yl)isoindoline-1,3-dione]	B ("B" is defined as 80%< substrate protein remaining %≤ 100%)		B ("B" is defined as 80%< substrate protein remaining %≤ 100%)	B ("B" is defined as 80%< substrate protein remaining %≤ 100%)	B ("B" is defined as 80%< substrate protein remaining %≤ 100%)	A ("A" is defined as 0% ≤ substrate protein remaining % ≤ 80%)
O=C1CCN(N2C(=O)c3ccc(CN4CCN(c5cc(Cl)ccn5)CC4)cc3C2=O)C(=O)N1 [GT-05354, 5-((4-(4-chloropyridin-2-yl)piperazin-1-yl)methyl)-2-(2,4-dioxotetrahydropyrimidin-1(2H)-yl)isoindoline-1,3-dione]	B ("B" is defined as 80%< substrate protein remaining %≤ 100%)			B ("B" is defined as 80%< substrate protein remaining %≤ 100%)		A ("A" is defined as 0% ≤ substrate protein remaining % ≤ 80%)
O=C1CCN(N2C(=O)c3ccc(CN4CCN(c5ncccc5F)CC4)cc3C2=O)C(=O)N1 [GT-05355, 2-(2,4-dioxotetrahydropyrimidin-1(2H)-yl)-5-((4-(3-fluoropyridin-2-yl)piperazin-1-yl)methyl)isoindoline-1,3-dione]	B ("B" is defined as 80%< substrate protein remaining %≤ 100%)	B ("B" is defined as 80%< substrate protein remaining %≤ 100%)		B ("B" is defined as 80%< substrate protein remaining %≤ 100%)	B ("B" is defined as 80%< substrate protein remaining %≤ 100%)	A ("A" is defined as 0% ≤ substrate protein remaining % ≤ 80%)
O=C1CCN(N2Cc3cc(CN4CCN(c5ncc(Cl)cc5Cl)CC4)ccc3C2=O)C(=O)N1 [GT-05356, 1-(5-((4-(3,5-dichloropyridin-2-yl)piperazin-1-yl)methyl)-1-oxoisoindolin-2-yl)dihydropyrimidine-2,4(1H,3H)-dione]	B ("B" is defined as 80%< substrate protein remaining %≤ 100%)			B ("B" is defined as 80%< substrate protein remaining %≤ 100%)	B ("B" is defined as 80%< substrate protein remaining %≤ 100%)	
O=C1CCN(N2Cc3cc(CN4CCN(c5nccc(F)c5F)CC4)ccc3C2=O)C(=O)N1 [GT-05357, 1-(5-((4-(3,4-difluoropyridin-2-yl)piperazin-1-yl)methyl)-1-oxoisoindolin-2-yl)dihydropyrimidine-2,4(1H,3H)-dione]	B ("B" is defined as 80%< substrate protein remaining %≤ 100%)		B ("B" is defined as 80%< substrate protein remaining %≤ 100%)	B ("B" is defined as 80%< substrate protein remaining %≤ 100%)	B ("B" is defined as 80%< substrate protein remaining %≤ 100%)	
